Among the data in ChEMBL document CHEMBL5608211, “Antibody-drug conjugates for targeted cancer therapy: Recent advances in potential payloads” (Eur J Med Chem, 2024) are IC50 values, retold here.

By IC50 is commonly meant the concentration that inhibits the measured activity by half.

The structures appear in SMILES notation. A value given as a limit tells only on which side of the number the result lay.

Holding throughout (type): functional, cell-based
Test [1] deals with MOLT-4. The test is described as follows: Cytotoxicity against human MOLT-4 cells assessed as inhibition of cell growth incubated for 72 hrs by XTT assay. The note with it: MOLT-4, 72 h. Background: Tetrazolium assays rely on reduction of a dye to a coloured formazan, in cell work by metabolically active cells.
Test [2] deals with T47D. Description: Cytotoxicity against human T47D cells.
The subject of test [3] is MES-SA. Description: Cytotoxicity against human MES-SA cells assessed as inhibition of cell growth incubated for 72 hrs by CellTiter-Glo luminescent assay. Background: Cellular ATP, detected with luciferase, serves as a proxy for viable cell number.
Test [4] relates to LoVo. The test is described as follows: Cytotoxicity against human LoVo cells assessed as inhibition of cell growth incubated for 72 hrs by Promega CellTiter-Glo assay.
Test [5] has as its system DLD-1. The test is described as follows: Antiproliferative activity against human DLD-1 cells assessed as inhibition of cell growth incubated for 3 to 4 days.

With `CCN(C(C)=O)[C@H]1CO[C@@H](O[C@H]2[C@H](O[C@H]3C#C/C=C\C#C[C@]4(O)CC(=O)C(NC(=O)OC)=C3/C4=C\CSC(C)=O)O[C@H](C)[C@@H](NO[C@H]3C[C@H](O)[C@H](SC(=O)c4c(C)c(I)c(O[C@@H]5O[C@@H](C)[C@H](O)[C@@H](OC)[C@H]5O)c(OC)c4OC)[C@@H](C)O3)[C@@H]2O)C[C@@H]1OC`, in test [1], the 50% inhibitory concentration (IC50) was determined as 0.15 pM.

Turning to `CC[C@H](C)[C@@H]1NC(=O)CNC(=O)[C@H]2CC(=O)[C@H]([C@@H](C)[C@@H](O)CO)NC(=O)[C@@H]3C[C@@H](O)CN3C(=O)[C@H](CC(=O)O)NC(=O)[C@H](C[S+]([O-])c3[nH]c4cc(O)ccc4c3C2)NC(=O)CNC1=O` (stereo not given in full), in test [2], the IC50 is roughly 500000 pM.

For `COc1c2c(c(O)c3c4c(c(C)cc13)C1O[C@@]3(C(OC)OC)OC1[C@@](O[C@H]1C[C@@H](O)[C@@](O)(C(C)=O)[C@@H](C)O1)(O4)C31CO1)C(=O)[C@@H](C)C[C@@H]2O[C@H]1C[C@@](C)(O)[C@H](OC(C)=O)[C@@H](C)O1` (stereo not given in full), in test [3], the IC50 worked out at 740 pM.

As to `CC(C)(C)[C@H](c1cc(-c2cc(F)ccc2F)cn1Cc1ccccc1)N(CCCN)C(=O)CO`, the IC50 in test [4] is less than 30 pM.

Take `C=C1C[C@@H]2CC[C@@]34C[C@H]5O[C@H]6[C@@H](O3)[C@H]3O[C@H](CC[C@@H]3O[C@H]6[C@H]5O4)CC(=O)C[C@@H]3[C@@H](OC)[C@@H](C[C@H](O)CN)O[C@H]3C[C@H]3O[C@@H](CC[C@@H]1O2)C[C@@H](C)C3=C` [ERIBULIN]: the IC50 in test [5] amounted to 13000 pM.
